For one compound, LD50 results are on record in patent publication EP0061162A2, “Cephalosporin derivatives, pharmaceutical compositions containing the same and production thereof” (KYOTO YAKUHIN KOGYO KABUSHIKI KAISHA, priority 1981, dated 1982).

Some results are limits rather than exact numbers.

A short description of this data set: Acute oral toxicity test in mice. Particulars: mouse, in vivo, suspension in 1% methylcellulose solution, male mice (ICR, 5-week-old), doses 0.5 g to 5.0 g/kg. The method, then: The acut oral toxicity data for cephalosporin derivatives (I) and acid addition salt of the present invention in mice are shown below.
Animals: Male mice (ICR, 5-week-old), n=3
Method of administration: The cephalosporin derivatives as prepared in the above synthesis examples were administered in the form of suspension in 1% methylcellulose solution to mice orally at doses of 0.5 g to 5.0 g/kg.

On to `CCOC(=O)OC(C)OC(=O)C1=CCS[C@@H]2[C@H](NC(=O)/C(=N\OC)c3csc(N)n3)C(=O)N12` (single isomer, unassigned) [Compound 1, l-(ethoxycarbonyloxy)ethyl 7-[2-(2-aminothiazol-4-yl)-2-methoxyiminoacetamido]-3-cephem-4-carboxylate (syn isomer)], for which the LD50 was greater than 5000 mg/kg.
